Laboratory results: patent US20250102494A1, “COMPOSITION FOR PREDICTING OXALIPLATIN DRUG EFFICACY, AND USE THEREOF” (SAMSUNG LIFE PUBLIC WELFARE FOUNDATION, priority 2022, published 2025)
Read-outs that look alike come from different tables or passages of the source.

Test system: HCT116 cells
Experiment: ATPlite cell viability after drug treatment, HCT116 cells in cell-line or organoid culture media
Type: cell-based
Parameters: AUC 1st / AUC 2nd / AUC 3rd / AUC Average: unit not given here
Procedure: Advanced DMEM/F12+++ (hereinafter referred to as “Ad/DF+++”) was used to produce colorectal cancer organoids. Ad/DF+++ was refrigerated at 4° C. until use, and was used in a cold state during cell washing. Ad/DF+++ medium containing the reagents shown in Table 1 below along with Ad/DF 1× (Gibco) was prepared.
After preparing the Ad/DF+++ medium containing the above reagents, an appropriate amount of Matrigel (Corning #356231) was added so that the ratio between Matrigel and cells suspended in the Ad/DF+++ medium was 7:3. Then, the cells were plated on low attachment well plates at an appropriate density. The density and the type and number of well plates were determined according to the characteristics of each cell type. The medium was prepared according to the composition shown in Table 2 below, and the cells were cultured (expanded) until the required level was reached while the medium was replaced every 3 to 4 days.
If the organoids were expanded as needed for the experiment, the medium was carefully removed, taking care not to touch the Matrigel. The cells were separated from the Matrigel by pipetting about 20 times with 1 ml of cold Ad/DF+++. The cells in 1 to 4 wells per 6-well plate were collected in one 50 ml tube. If cells are collected from more than 4 wells into one tube, the Metrigel may not be washed properly. For this reason, the cells were placed in several tubes. Thereafter, Ad/DF+++ was poured to 20 to 50 ml of each tube, followed by centrifugation at 400 g for 3 minutes at 4° C. The cells were dissociated with 1 to 2 mL of TrypLE™ Express Enzyme (Gibco, 1264-013), transferred to low-attachment 24 well plates, and then treated with 10 μM of Y-27632. Next, the cells were cultured in a CO2 incubator for 5 minutes at 37° C. After pipetting about 20 times, whether the cells would be dissociated into single cells was checked by microscopic observation. If the cells were not dissociated into single cells, the culture under CO2 and pipetting processes were repeated. After the single cells were transferred into 15-ml tubes, Ad/DF+++ was filled to 10 to 15 ml of each tube, followed by centrifugation at 400 g at 4° C. for 3 minutes. After suspending the pellet in Ad/DF+++, the cells were counted and diluted with medium according to the required number of cells.
12 hours after seeding in Experimental Example 1-2 above, the medium was changed with the medium shown in Table 3 below, followed by culturing to produce organoids.
Four hours after the medium change, the cells were treated with oxaliplatin, 5-FU, Irinotecan, and folinic acid. Five days after drug treatment, intracellular ATP expression was determined using the ATPlite assay kit (PerkinElmer), and the data were expressed in terms of cell viability, IC50, and AUC.
As the standard for confirming that cells are sensitive to the drug, the response of the cells to the drug was assumed to be 100%, and the luminescence value of surviving cells after drug treatment was analyzed and compared with the quantified drug response value.
Based on the assumption that the factor that increases the resistance of the organoids to oxaliplatin is an activator or inhibitor that changes the phenotype, the organoids prepared by excluding some or all of activators and inhibitors as shown in Table 4 below were treated with oxaliplatin.
In order to identify the factors that reduce the resistance to oxaliplatin of the Ex2 organoid, activators or inhibitors that change the phenotype were added one by one to the Ex2 organoid composition, thus producing organoids as shown in Table 8 below. Then, it was checked whether the produced organoids had increased resistance to oxaliplatin.

For `O=C1[O][Pt]2([NH][C@@H]3CCCC[C@H]3[NH]2)[O]C1=O` [oxaliplatin], the “AUC Average” value (HCT116 in Ex2-2, average) was 302.1, the IC50 (HCT116 in Ex2-2, average, read-out: IC50 (μM) Average) was 22.5 µM and the “AUC 1st” value (HCT116 in Ex2-3 (Ex2 + SB 202190 10 μM), 1st) was 306.6. The IC50 (HCT116 in Ex2-3 (Ex2 + SB 202190 10 μM), 1st, read-out: IC50 (μM) 1st) was 30.2 µM, the “AUC 2nd” value (HCT116 in Ex2-3, 2nd) was 343.3 and the IC50 (HCT116 in Ex2-3, 2nd, read-out: IC50 (μM) 2nd) was 63.4 µM. For the same molecule, the “AUC 3rd” value (HCT116 in Ex2-3, 3rd) was 287.0, the IC50 (HCT116 in Ex2-3, 3rd, read-out: IC50 (μM) 3rd) was 18.2 µM and the “AUC Average” value (HCT116 in Ex2-3, average) was 312.3. The IC50 (HCT116 in Ex2-3, average, read-out: IC50 (μM) Average) was 37.3 µM, the “AUC 1st” value (HCT116 in Ex2-4 (Ex2 + Wnt3a), 1st) was 258.2 and the IC50 (HCT116 in Ex2-4 (Ex2 + Wnt3a), 1st, read-out: IC50 (μM) 1st) was 5.9 µM. For the same molecule, the “AUC 2nd” value (HCT116 in Ex2-4, 2nd) was 304.7, the IC50 (HCT116 in Ex2-4, 2nd, read-out: IC50 (μM) 2nd) was 38.8 µM and the “AUC 3rd” value (HCT116 in Ex2-4, 3rd) was 315.9. The IC50 (HCT116 in Ex2-4, 3rd, read-out: IC50 (μM) 3rd) was 26.9 µM, the “AUC Average” value (HCT116 in Ex2-4, average) was 292.9 and the IC50 (HCT116 in Ex2-4, average, read-out: IC50 (μM) Average) was 23.8 µM. For the same molecule, the “AUC 1st” value (HCT116 in Ex2-5 (Ex2 + R-spondin 1 1 μg/ml), 1st) was 317.5, the IC50 (HCT116 in Ex2-5 (Ex2 + R-spondin 1 1 μg/ml), 1st, read-out: IC50 (μM) 1st) was 34 µM and the “AUC 2nd” value (HCT116 in Ex2-5, 2nd) was 322.7. For the same molecule, the IC50 (HCT116 in Ex2-5, 2nd, read-out: IC50 (μM) 2nd) was 43 µM, the “AUC 3rd” value (HCT116 in Ex2-5, 3rd) was 351.6 and the IC50 (HCT116 in Ex2-5, 3rd, read-out: IC50 (μM) 3rd) was 103 µM. For the same molecule, the “AUC Average” value (HCT116 in Ex2-5, average) was 330.6, the IC50 (HCT116 in Ex2-5, average, read-out: IC50 (μM) Average) was 60 µM and the “AUC 1st” value (HCT116 in Ex2-6 (Ex2 + Noggin 100 ng/ml), 1st) was 264.3. For the same molecule, the IC50 (HCT116 in Ex2-6 (Ex2 + Noggin 100 ng/ml), 1st, read-out: IC50 (μM) 1st) was 7.8 µM, the “AUC 2nd” value (HCT116 in Ex2-6, 2nd) was 309.4 and the IC50 (HCT116 in Ex2-6, 2nd, read-out: IC50 (μM) 2nd) was 41.4 µM. For the same molecule, the “AUC 3rd” value (HCT116 in Ex2-6, 3rd) was 292.6, the IC50 (HCT116 in Ex2-6, 3rd, read-out: IC50 (μM) 3rd) was 22.1 µM and the “AUC Average” value (HCT116 in Ex2-6, average) was 288.8. The IC50 (HCT116 in Ex2-6, average, read-out: IC50 (μM) Average) was 23.8 µM, the “AUC 2nd” value (HCT116 in Ex2, 2nd) was 324.8 and the IC50 (HCT116 in Ex2, 2nd, read-out: IC50 (μM) 2nd) was 46.1 µM. The “AUC 3rd” value (HCT116 in Ex2, 3rd) was 331.7, the IC50 (HCT116 in Ex2, 3rd, read-out: IC50 (μM) 3rd) was 40.5 µM and the “AUC Average” value (HCT116 in Ex2, average) was 325.4. For the same molecule, the IC50 (HCT116 in Ex2, average, read-out: IC50 (μM) Average) was 38.1 µM, the “drug response, colorectal cancer cell line compared with cells under Ex1 organoid culture conditions” value (HCT-116, FIG. 2) was “increased resistance under the organoid culture conditions” and the “drug responsiveness, colorectal cancer cell line compared with organoids cultured in Ex1 and Ex2” value (HCT-116, FIG. 25) was “oxaliplatin resistance decreased in Ex2”.
